Data as given in patent US20070259962A1, “Use of N-Arylhydrazine Derivatives for Combating Pests in and on Animals” (priority 2003, published 2007).

Assays:
[1] = test system: Stomoxys calcitrans; test: contact activity via glass contact, stable fly; conditions: rate 10 ppm
Method: (§1) 1. Screening method to test contact activity against stable fly, yellowfever mosquito, house mosquito, malaria mosquito, cat flea, and brown dog tick via glass contact
(§2) Glass vials (20 ml scintillation vials) were treated with 0.5 ml of a solution of active ingredient in acetone. Each vial was rolled uncapped for ca. 10 minutes to allow the a.i. to completely coat the vial and to allow for full drying of the acetone. Insects or ticks were placed into each vial.
(§3) Each test was replicated at least 3 times.

[2] = test system: Aedes aegypti; test: contact activity via glass contact, yellowfever mosquito; conditions: rate 10 ppm
Method: as §1, §2, §3

[3] = test system: Culex quinquefasciatus; test: contact activity via glass contact, house mosquito; conditions: rate 0.5 ppm
Method: as §1, §2, §3

[4] = test system: Anopheles albimanus; test: contact activity via glass contact, malaria mosquito; conditions: rate 1 ppm
Method: as §1, §2, §3

[5] = test system: Ctenocephalides felis; test: contact activity via glass contact, cat flea; conditions: rate 100 ppm
Method: as §1, §2, §3

[6] = test system: Aedes aegypti; test: contact activity via water treatment, yellowfever mosquito larvae; conditions: yellowfever mosquito larvae (4th-instars), rate 10 ppm
Method: (§4) 2. Screening method to test contact activity against yellowfever mosquito, southern house mosquito, and malaria mosquito larvae via water treatment
(§5) Well plates were used as test arenas. The active ingredient was dissolved in acetone and diluted with water to obtain the concentrations needed. The final solutions containing appr. 1% acetone were placed into each well. Approximately 10 mosquito larvae (4th-instars) in 1 ml water were added to each well. Larvae were fed one drop of liver powder each day. The dishes were covered and maintained at 22° C. Mortality was recorded daily and dead larvae and live or dead pupae were removed daily. At the end of the test remaining live larvae were recorded and percent mortality was calculated.
as §3

[7] = test system: Culex quinquefasciatus; test: contact activity via water treatment, southern house mosquito larvae; conditions: house mosquito larvae (4th-instars), rate 10 ppm
Method: as §4, §5, §3

[8] = test system: Anopheles albimanus; test: contact activity via water treatment, malaria mosquito larvae; conditions: malaria mosquito larvae (4th-instars), rate 1.0 ppm
Method: as §4, §5, §3

CCN/C(=N\Nc1c(Cl)cc(C(F)(F)F)cc1Cl)C1(C)CC1(Cl)Cl (stereo not drawn) [1-2, N-Ethyl-2,2-dichloro-1-methylcyclopropane-carboxamide-2-(2,6-dichloro-α,α,α-trifluoro-p-tolyl)hydrazone]
Days or Hours to achieve 100% mortality [1]: 4 h
Days or Hours to achieve 100% mortality [2]: 4 h
Days or Hours to achieve 100% mortality [3]: 4 h
Days or Hours to achieve 100% mortality [4]: 1 days
Days or Hours to achieve 100% mortality [5]: 2 days
Days or Hours to achieve 100% mortality [6]: 2 days
Days or Hours to achieve 100% mortality [7]: 1 days
Days or Hours to achieve 100% mortality [8]: 1 days

CCN/C(=N\Nc1c(Cl)cc(C(F)(F)F)cc1Cl)C(C)(C)C [I-1, N-ethyl-2,2-dimethylpropionamide-2-(2,6-dichloro-α,α,α-trifluoro-p-tolyl)-hydrazone]
Days or Hours to achieve 100% mortality [1]: 4 h
Days or Hours to achieve 100% mortality [2]: 4 h
Days or Hours to achieve 100% mortality [3]: 4 h
Days or Hours to achieve 100% mortality [4]: 1 days
Days or Hours to achieve 100% mortality [5]: 2 days
Days or Hours to achieve 100% mortality [6]: 2 days
Days or Hours to achieve 100% mortality [7]: 1 days
Days or Hours to achieve 100% mortality [8]: 1 days
